Assay [1] concerns differentiated 3T3-L1 adipocyte cells. The assay can be described thus: Nile Red detection of lipid droplets (intensity, size, number) in adipocytes. The class given is cell-based. As for the experimental part: The culture, the differentiation of 3T3-L1 cells, then the treatment with the compounds to be tested are performed as in example 2. The lipid detection is performed using Nile Red fluorescent stain, a phenoxazone that intensely labels the intracellular lipids. The color of the fluorescence observed is directly dependent upon the hydrophobicity of the surrounding medium. This specific property of Nile Red makes it possible to differentiate neutral lipids, labeled in gold-yellow, from phospholipids, labeled in red. […] The cells are examined with the fluorescence microscope. The quantification and statistical analysis are performed as in example 2.

For a further assay, the system named is aquaglyceroporin 7. Description: Immuno-detection of aquaglyceroporin 7 expression in differentiated 3T3-L1 adipocyte cells. Format: cell-based. The settings on record: differentiated 3T3-L1 cells; with respect to untreated control; carob extract 1% daily for 12 days, caffeine 2 mM for 5 hours. As for the experimental part:
3T3-L1 adipocyte cells are cultivated in a DMEM medium with 4.5 g/l glucose, 2 mM glutamine and 10% fetal bovine serum. Two days after the cell confluence phase, the differentiation of 3T3-L1 cells into adipocytes is induced by adding a solution of 0.5 mM of IBMX, 1 μM of dexamethasone and 10 μg/ml of insulin (Sigma, St. Louis, Mo., USA) in the culture medium for 3 days. Then, only the insulin is kept for 3 to 4 days of additional culture. The cells are then kept in culture, in a standard medium, for another 3 days. The treatment is performed from the start of the differentiation induction phase by a daily application, for 12 days, of 1×PBS (Lonza, Rockland, Me., USA) for the untreated control, carob germ extract with a dry weight of 2.5 g/kg as obtained in example 1, diluted to 1% in PBS, or carob germ extract as obtained in example 1, diluted to 1% in PBS and to which 2 mM of caffeine is added for the last 5 hours of the treatment. A 5-hour treatment with 2 mM of caffeine was also performed. […] The cell membranes are permeabilized with acetone for 4 minutes at -20° C. The non-specific sites are saturated with 3% bovine serum albumin (Sigma-Aldrich, […], Germany) for 15 minutes. […] Three images for each condition are analyzed using the Image-Pro Analyzer 6.3 software. […]

[2] abbreviates: with respect to untreated cells.

On to `Cn1c(=O)c2c(ncn2C)n(C)c1=O` [Caffeine, caffeine], for which, in assay [1] (differentiated 3T3-L1 cells), the Average droplet size is recorded as 109.55 μm^2 and the Number of droplets came out at 219. For the same compound, the “Intensity of the Nile Red labeling, Ratio” value in assay [1] (differentiated 3T3-L1 cells, carob extract 1% 12 days, caffeine 2 mM 5 hours) is recorded as 180.47 Pixels/μm^2. Moreover, the “intensity of the Nile Red labeling, size and number of droplets (in words)” value in assay [1] (with respect to the untreated cells) is “reduced”. For the same compound, in assay [1] (setting [2]), the “Droplet size, % reduction” value is −17.40%; the “Intensity of the Nile Red labeling, % reduction” value is −37.36%; the “Number of droplets, % reduction” value was −18%. For the same compound, the “increase in fluorescence (aquaglyceroporin 7 immunolabeling)” value in the assay with aquaglyceroporin 7 is on record as 12.6%.

For the origin of these results see patent publication US9962329B2, “Cosmetic use of the combination of a carob germ extract and caffeine as a slimming active agent” (ISP INVESTMENTS INC., priority 2012, dated 2018).
